Results published in article PMC10243098 (Journal of medicinal chemistry, 2023).

Key:
[1] = molecular target: HAT1/Rbap46 enzyme complex (Homo sapiens, UniProt O14929); assay: HAT1 acetyl-click assay
[2] = molecular target: GCN5 (Homo sapiens, UniProt Q92830); assay: Other acetyltransferase assay; format: biochemical; details: up to 100 μM
[3] = molecular target: PCAF (Homo sapiens, UniProt Q92831); assay: Other acetyltransferase assay; format: biochemical; details: up to 100 μM
[4] = molecular target: KAT5 (Homo sapiens, UniProt Q92993); assay: Other acetyltransferase assay; format: biochemical; details: up to 100 μM
[5] = molecular target: MYST4/KAT6b (Homo sapiens, UniProt Q8WYB5); assay: Other acetyltransferase assay; format: biochemical; details: up to 100 μM
[6] = test system: FAD-dependent oxidase; assay: FAD oxidase reaction; format: biochemical; details: 0.01 μM FAD
[7] = test system: H4 lysine 5 and 12 acetylation; assay: Nascent histone H4 acetylation in hTert-HME1 cells; format: cell-based, human; details: hTert-HME1, 12 hours
[8] = mouse, in vivo, ip
[9] = test system: A549 tumors; assay: A549 xenograft tumor growth; details: 50 mg/kg and 100 mg/kg i.p. once every three days; p < 0.0001
[10] = Dose-finding tolerability, single i.p. injection; details: mice
[11] = Plasma pharmacokinetics after single i.p. injection; details: female, CD1, mouse, intraperitoneal, 100 mg/kg
[12] = test system: H4K12Ac in A549 tumors; assay: H4K12Ac immunofluorescence in A549 tumors after single i.p. dose; details: tumors harvested 24 hours later
[13] = test system: HCC1806 cells; assay: Cell growth inhibition; format: cell-based, human

HAT1/Rbap46 enzyme complex, sequence (O14929 whole entry): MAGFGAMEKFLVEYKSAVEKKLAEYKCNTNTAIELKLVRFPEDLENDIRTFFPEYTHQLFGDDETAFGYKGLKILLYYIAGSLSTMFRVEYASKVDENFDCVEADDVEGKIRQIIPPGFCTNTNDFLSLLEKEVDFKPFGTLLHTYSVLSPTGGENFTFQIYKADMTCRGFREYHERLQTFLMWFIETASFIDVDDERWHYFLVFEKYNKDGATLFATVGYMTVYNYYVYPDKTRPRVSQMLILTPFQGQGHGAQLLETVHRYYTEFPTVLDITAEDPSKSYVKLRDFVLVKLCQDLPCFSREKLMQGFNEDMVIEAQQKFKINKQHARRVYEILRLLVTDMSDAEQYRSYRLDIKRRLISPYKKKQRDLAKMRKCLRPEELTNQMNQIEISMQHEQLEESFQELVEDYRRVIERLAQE
HAT1/Rbap46 enzyme complex, sequence (Q16576 whole entry partner): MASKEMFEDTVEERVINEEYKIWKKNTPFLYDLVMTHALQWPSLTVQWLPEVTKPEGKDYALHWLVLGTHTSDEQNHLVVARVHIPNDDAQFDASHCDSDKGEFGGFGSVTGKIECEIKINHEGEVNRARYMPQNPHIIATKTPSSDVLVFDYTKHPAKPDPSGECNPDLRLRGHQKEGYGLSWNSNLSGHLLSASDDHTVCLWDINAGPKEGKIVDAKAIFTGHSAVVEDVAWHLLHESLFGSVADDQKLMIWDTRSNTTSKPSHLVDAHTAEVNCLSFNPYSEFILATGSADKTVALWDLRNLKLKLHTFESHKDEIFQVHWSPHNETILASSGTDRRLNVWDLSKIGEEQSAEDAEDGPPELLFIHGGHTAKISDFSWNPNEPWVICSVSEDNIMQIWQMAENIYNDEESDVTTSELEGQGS
PCAF, sequence (Q92831 whole entry): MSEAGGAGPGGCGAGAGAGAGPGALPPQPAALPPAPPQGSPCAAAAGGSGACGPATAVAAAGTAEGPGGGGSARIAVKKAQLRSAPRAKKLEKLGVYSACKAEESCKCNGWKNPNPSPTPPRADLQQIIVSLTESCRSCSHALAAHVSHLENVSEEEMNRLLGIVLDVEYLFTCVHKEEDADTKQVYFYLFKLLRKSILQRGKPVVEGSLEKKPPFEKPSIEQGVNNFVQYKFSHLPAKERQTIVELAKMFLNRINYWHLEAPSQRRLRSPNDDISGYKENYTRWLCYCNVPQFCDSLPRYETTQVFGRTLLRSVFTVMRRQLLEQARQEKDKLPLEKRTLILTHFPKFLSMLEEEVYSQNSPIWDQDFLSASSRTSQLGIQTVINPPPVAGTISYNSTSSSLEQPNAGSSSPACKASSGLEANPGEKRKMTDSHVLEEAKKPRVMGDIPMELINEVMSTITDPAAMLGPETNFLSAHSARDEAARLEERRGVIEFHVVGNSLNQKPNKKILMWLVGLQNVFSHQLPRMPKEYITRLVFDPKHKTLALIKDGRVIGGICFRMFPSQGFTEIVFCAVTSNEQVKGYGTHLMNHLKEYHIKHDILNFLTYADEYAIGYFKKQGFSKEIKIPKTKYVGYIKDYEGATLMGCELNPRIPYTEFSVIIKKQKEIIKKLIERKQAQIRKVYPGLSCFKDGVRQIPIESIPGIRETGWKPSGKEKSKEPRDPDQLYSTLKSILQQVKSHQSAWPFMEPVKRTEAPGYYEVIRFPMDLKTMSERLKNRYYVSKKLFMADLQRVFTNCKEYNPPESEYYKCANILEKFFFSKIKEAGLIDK
MYST4/KAT6b, sequence (Q8WYB5 whole entry): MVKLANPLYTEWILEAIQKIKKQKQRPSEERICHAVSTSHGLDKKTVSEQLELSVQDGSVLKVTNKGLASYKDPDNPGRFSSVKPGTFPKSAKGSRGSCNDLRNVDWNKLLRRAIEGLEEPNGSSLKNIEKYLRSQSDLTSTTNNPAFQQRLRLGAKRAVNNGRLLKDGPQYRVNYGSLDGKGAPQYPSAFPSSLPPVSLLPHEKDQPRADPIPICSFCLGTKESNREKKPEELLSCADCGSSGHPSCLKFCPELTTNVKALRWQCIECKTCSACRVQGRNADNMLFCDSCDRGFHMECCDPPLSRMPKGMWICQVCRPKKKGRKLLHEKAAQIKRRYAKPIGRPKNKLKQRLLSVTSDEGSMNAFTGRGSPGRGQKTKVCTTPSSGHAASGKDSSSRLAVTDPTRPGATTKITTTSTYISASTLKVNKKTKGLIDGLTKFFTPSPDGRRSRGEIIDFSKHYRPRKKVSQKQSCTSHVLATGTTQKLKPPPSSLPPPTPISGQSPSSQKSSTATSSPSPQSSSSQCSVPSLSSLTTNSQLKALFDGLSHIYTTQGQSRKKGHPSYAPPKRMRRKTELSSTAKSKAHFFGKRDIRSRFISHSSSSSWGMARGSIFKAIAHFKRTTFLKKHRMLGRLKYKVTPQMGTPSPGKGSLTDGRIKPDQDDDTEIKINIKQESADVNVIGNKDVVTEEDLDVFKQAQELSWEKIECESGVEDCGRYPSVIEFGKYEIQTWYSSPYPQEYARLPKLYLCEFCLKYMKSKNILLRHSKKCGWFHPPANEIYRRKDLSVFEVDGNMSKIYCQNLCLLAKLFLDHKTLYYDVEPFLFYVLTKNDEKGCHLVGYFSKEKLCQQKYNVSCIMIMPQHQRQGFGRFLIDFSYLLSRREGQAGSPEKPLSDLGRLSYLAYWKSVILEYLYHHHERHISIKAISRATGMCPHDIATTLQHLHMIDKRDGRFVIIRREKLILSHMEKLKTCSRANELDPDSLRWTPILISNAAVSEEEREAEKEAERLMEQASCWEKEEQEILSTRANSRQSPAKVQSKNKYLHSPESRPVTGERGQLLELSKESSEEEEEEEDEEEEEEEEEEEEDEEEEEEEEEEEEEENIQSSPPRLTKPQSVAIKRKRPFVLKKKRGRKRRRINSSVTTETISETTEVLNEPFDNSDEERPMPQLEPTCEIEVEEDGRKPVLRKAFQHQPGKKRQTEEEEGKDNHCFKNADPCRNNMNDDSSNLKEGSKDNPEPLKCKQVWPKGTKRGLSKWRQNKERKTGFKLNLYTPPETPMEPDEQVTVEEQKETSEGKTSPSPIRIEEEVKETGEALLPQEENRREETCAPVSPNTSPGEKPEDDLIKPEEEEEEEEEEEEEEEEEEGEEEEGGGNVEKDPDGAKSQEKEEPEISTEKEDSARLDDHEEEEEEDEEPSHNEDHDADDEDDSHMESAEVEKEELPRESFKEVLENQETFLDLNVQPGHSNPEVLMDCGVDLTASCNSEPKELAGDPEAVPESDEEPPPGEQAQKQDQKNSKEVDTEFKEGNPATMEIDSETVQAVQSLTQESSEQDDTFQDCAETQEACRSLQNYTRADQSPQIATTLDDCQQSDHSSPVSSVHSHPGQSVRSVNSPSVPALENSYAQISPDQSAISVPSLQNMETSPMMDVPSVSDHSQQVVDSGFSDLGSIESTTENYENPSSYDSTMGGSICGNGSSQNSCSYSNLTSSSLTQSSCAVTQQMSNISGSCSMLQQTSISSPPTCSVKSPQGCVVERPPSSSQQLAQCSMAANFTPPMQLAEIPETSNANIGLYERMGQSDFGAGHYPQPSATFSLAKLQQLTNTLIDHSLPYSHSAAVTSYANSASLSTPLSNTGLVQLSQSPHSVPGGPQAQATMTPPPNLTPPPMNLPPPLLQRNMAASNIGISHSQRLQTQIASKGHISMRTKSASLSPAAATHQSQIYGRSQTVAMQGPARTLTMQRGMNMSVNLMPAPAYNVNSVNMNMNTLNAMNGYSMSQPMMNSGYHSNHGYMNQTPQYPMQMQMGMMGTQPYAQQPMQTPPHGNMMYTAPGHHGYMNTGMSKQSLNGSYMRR
KAT5, sequence (Q92993 whole entry): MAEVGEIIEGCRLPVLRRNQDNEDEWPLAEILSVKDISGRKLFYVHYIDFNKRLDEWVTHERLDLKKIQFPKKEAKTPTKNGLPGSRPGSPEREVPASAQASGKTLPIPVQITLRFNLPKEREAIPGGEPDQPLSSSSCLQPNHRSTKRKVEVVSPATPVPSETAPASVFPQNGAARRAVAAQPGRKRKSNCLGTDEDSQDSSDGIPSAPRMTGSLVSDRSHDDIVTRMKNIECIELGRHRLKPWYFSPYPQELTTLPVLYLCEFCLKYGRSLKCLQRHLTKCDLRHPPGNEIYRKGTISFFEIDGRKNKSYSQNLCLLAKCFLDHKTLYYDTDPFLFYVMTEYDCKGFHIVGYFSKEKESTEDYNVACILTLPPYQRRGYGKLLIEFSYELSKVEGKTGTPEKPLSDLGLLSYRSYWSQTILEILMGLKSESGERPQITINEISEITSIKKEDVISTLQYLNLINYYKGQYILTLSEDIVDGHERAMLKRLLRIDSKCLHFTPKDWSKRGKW
GCN5, sequence (Q92830 whole entry): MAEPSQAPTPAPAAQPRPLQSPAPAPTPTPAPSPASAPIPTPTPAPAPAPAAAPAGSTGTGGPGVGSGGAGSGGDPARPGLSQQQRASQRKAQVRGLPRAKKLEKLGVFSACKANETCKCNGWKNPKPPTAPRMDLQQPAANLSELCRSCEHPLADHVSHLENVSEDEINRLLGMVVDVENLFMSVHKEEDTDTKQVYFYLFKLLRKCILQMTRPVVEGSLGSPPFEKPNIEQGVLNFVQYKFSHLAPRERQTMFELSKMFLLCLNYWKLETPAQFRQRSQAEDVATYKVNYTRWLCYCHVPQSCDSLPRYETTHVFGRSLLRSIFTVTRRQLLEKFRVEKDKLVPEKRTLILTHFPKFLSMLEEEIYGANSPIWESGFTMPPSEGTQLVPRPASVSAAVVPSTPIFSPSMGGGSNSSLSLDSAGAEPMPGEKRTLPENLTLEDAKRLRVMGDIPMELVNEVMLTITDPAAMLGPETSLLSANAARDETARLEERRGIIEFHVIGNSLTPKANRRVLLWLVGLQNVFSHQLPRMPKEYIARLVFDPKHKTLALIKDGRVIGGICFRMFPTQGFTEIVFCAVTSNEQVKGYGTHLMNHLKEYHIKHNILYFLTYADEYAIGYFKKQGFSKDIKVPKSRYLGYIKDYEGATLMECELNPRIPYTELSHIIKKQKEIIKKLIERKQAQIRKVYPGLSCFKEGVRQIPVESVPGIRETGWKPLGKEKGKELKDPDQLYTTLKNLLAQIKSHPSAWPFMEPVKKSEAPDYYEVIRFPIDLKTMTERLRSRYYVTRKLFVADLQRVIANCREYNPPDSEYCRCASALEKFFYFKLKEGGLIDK

For “3-(3-(7-Chloro-8-ethyl-2,4-dioxo-3,4-dihydrobenzo[g]pteridin-10(2H)-yl)propoxy)benzonitrile [Compound 37i]”, the “HAT1 inhibitory activity (in words)” value [1] was “interfered with enzyme inhibition”.
In the case of `Cc1cc2nc3c(=O)[nH]c(=O)nc-3n(C[C@H](O)[C@H](O)[C@H](O)COP(=O)(O)O)c2cc1C` [FMN, flavin-mononucleotide, reference compound], the “HAT1 inhibitory activity (in words)” value [1] is reported as “no detectable inhibitory activity”.
In the case of `CCc1cc2c(cc1Cl)nc1c(=O)[nH]c(=O)nc-1n2CCOCC(C)C` [JG-2016, 7-Chloro-8-ethyl-10-(2-isobutoxyethyl)benzo[g]pteridine-2,4(3H,10H)-dione], the “inhibitory activity towards GCN5” value [2] is reported as “minimal or undetectable inhibitory activity”, the “inhibitory activity towards PCAF” value [3] is reported as “minimal or undetectable inhibitory activity” and the “inhibitory activity towards KAT5” value [4] is reported as “minimal or undetectable inhibitory activity”. For the same molecule, the “inhibitory activity towards MYST4/KAT6b” value [5] was “minimal or undetectable inhibitory activity”, the “inhibition of FAD-dependent oxidase” value [6] was “no significant inhibitory activity” and the “H4 lysine 5 and 12 acetylation in cells” value [7] was “dose-dependent inhibition”. The “tolerated dose with minimal toxicity” value [8] was “up to 250 mg/kg”, the “tumor growth versus vehicle” value [9] was “significantly impaired tumor growth” and the “dose at which signs of distress were observed” value [10] was 500 mg/kg. The concentration at 72 h [11] was 2050 ± 233 nM and the “H4K12Ac signal in tumors” value [12] was “dose-dependent decrease”.
For `CCc1cc2c(cc1Cl)nc1c(=O)[nH]c(=O)nc-1n2CCOCc1cccc(F)c1` [Compound 20b, 7-Chloro-8-ethyl-10-(2-((3-fluorobenzyl)oxy)ethyl)benzo[g]pteridine-2,4(3H,10H)-dione], the “HAT1 inhibitory activity (in words)” value [1] was “interfered with enzyme inhibition”.
With `CC(=O)SCCNC(=O)CCNC(=O)[C@H](O)C(C)(C)COP(=O)(O)OP(=O)(O)OC[C@H]1O[C@@H](n2cnc3c(N)ncnc32)[C@H](O)[C@@H]1OP(=O)(O)O` [acetyl-CoA] the “preference of enzyme for native cofactor versus 4-pentynoyl-CoA” value [1] was > 100 fold and the “suppression of pentynoylated product” value ([1]; 1 μM acetyl-CoA, 100 μM 4-pentynoyl-CoA) was “completely suppressed”.
For `Cc1cc2nc3c(=O)[nH]c(=O)nc-3n(C[C@H](O)[C@H](O)[C@H](O)CO)c2cc1N(C)C` [roseoflavin, reference compound], the “cell growth inhibitory activity (in words)” value [13] was “strong cell growth inhibitory properties” and the “HAT1 inhibitory activity (in words)” value [1] was “inactive”.
For `Cc1cc2nc3c(=O)[nH]c(=O)nc-3n(C[C@H](O)[C@H](O)[C@H](O)COP(=O)(O)OP(=O)(O)OC[C@H]3O[C@@H](n4cnc5c(N)ncnc54)[C@H](O)[C@@H]3O)c2cc1C` [FAD, flavin-adenine-dinucleotide, reference compound], the “HAT1 inhibitory activity (in words)” value [1] was “no detectable inhibitory activity”.
In the case of `Cc1cc2nc3[nH]c(=O)[nH]c(=O)c3nc2cc1C` [di-methyl-alloxazine, reference compound], the “HAT1 inhibitory activity (in words)” value [1] is reported as “no detectable inhibitory activity”.
In the case of `CCc1cc2c(cc1Cl)nc1c(=O)[nH]c(=O)nc-1n2CCOCc1ccc(C#N)cc1` [Compound 24g, 4-((2-(7-Chloro-8-ethyl-2,4-dioxo-3,4-dihydrobenzo[g]pteridin-10(2H)-yl)ethoxy)methyl)benzonitrile], the “HAT1 inhibitory activity (in words)” value [1] is reported as “interfered with enzyme inhibition”.
